Source: BindingDB's records for doi:10.1002/cmdc.200500008 (Philipps-Universität Marburg, 2006)

The molecules below were run against Cathepsin D (Homo sapiens, UniProt P07339) (assay: Enzymatic Assay). Conditions: pH 5.5.
Sequence of Cathepsin D (P07339 65-162 limits assumed): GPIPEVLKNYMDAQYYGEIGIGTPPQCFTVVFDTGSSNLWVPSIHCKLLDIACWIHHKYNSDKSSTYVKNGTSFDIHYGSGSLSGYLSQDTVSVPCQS
Sequence of Cathepsin D (P07339 169-412 limits assumed): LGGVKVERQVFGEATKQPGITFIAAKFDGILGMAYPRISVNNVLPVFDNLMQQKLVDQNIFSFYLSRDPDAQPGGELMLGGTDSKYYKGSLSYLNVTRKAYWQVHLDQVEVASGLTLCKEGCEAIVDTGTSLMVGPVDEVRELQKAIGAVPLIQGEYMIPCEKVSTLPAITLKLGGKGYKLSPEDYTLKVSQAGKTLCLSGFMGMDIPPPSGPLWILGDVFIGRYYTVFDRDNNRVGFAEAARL

| SMILES | IC50 |
| --- | --- |
| Cc1cccc(C)c1OCC(=O)N(Cc1ccccc1)CC1CNC[C@H]1CN(CC(C)C)S(=O)(=O)c1ccccc1 (stereo not given in full) [Aspartyl protease inhibitor, 13] | > 40 µM |
| Cc1cccc(C)c1OCC(=O)N(Cc1ccccc1)CC1CNC[C@H]1CN(CC(C)C)S(=O)(=O)c1ccc(N)cc1 (stereo not given in full) [Aspartyl protease inhibitor, 14] | > 40 µM |
| Cc1ccc(S(=O)(=O)N(CC(C)C)C[C@@H]2CNCC2CN(Cc2ccccc2)C(=O)COc2c(C)cccc2C)cc1 (stereo not given in full) [Aspartyl protease inhibitor, 15] | > 40 µM |
| COc1cc(Br)c(OC(=O)N(Cc2ccccc2)CC2CNC[C@H]2CN(CCc2ccc(Cl)cc2Cl)C(=O)CCCc2ccccc2)cc1OC (stereo not given in full) [Aspartyl protease inhibitor, 16] | 1.05 µM |
| COc1cc(Br)c(OC(=O)N(Cc2ccccc2)CC2CNC[C@H]2CN(CCc2ccc(Cl)cc2Cl)C(=O)CCN2C(=O)c3ccccc3C2=O)cc1OC (stereo not given in full) [Aspartyl protease inhibitor, 17] | 0.57 µM |

These molecules were tested against Gag-Pol polyprotein (Human immunodeficiency virus type 1 group M subtype B (isolate BRU/LAI), UniProt P03367) (assay: Enzymatic Assay). Conditions: pH 5.5.
Experimental: Binding constants for inhibition of HIV protease were determined as previously described.

| SMILES | IC50 |
| --- | --- |
| Cc1cccc(C)c1OCC(=O)N(Cc1ccccc1)CC1CNC[C@H]1CN(CC(C)C)S(=O)(=O)c1ccccc1 (stereo not given in full) [Aspartyl protease inhibitor, 13] | 2.2 µM |
| Cc1cccc(C)c1OCC(=O)N(Cc1ccccc1)CC1CNC[C@H]1CN(CC(C)C)S(=O)(=O)c1ccc(N)cc1 (stereo not given in full) [Aspartyl protease inhibitor, 14] | 3.3 µM |
| Cc1ccc(S(=O)(=O)N(CC(C)C)C[C@@H]2CNCC2CN(Cc2ccccc2)C(=O)COc2c(C)cccc2C)cc1 (stereo not given in full) [Aspartyl protease inhibitor, 15] | 12.1 µM |
| COc1cc(Br)c(OC(=O)N(Cc2ccccc2)CC2CNC[C@H]2CN(CCc2ccc(Cl)cc2Cl)C(=O)CCCc2ccccc2)cc1OC (stereo not given in full) [Aspartyl protease inhibitor, 16] | 19.8 µM |
| COc1cc(Br)c(OC(=O)N(Cc2ccccc2)CC2CNC[C@H]2CN(CCc2ccc(Cl)cc2Cl)C(=O)CCN2C(=O)c3ccccc3C2=O)cc1OC (stereo not given in full) [Aspartyl protease inhibitor, 17] | 22.1 µM |
